Experimental data from the supplement of paper PMC13380429.

How the values were obtained:
Conditions in all cases: 72 h
HepG2 [1] = experiment: cell viability relative to DMSO; higher = less toxic
Vero E6 [2] = experiment: as above
Caco-2 [3] = experiment: as above
Calu-3 [4] = experiment: as above
U2OS [5] = experiment: as above
HepG2 [6] = experiment: relative viability EC50 (midpoint between 100% and the lowest measured viability); higher = less toxic
Vero E6 [7] = experiment: as above
Caco-2 [8] = experiment: as above
Calu-3 [9] = experiment: as above
U2OS [10] = experiment: as above
HepG2 [11] = experiment: drug sensitivity score (DSS) for viability; higher = more toxic; extreme values may be limits of the assay
Vero E6 [12] = experiment: as above
Caco-2 [13] = experiment: as above
Calu-3 [14] = experiment: as above
U2OS [15] = experiment: as above

SMILES | cell viability (HepG2 [1]; 1 nM) | cell viability (HepG2 [1]; 10 nM) | cell viability (HepG2 [1]; 100 nM) | cell viability (HepG2 [1]; 1000 nM) | cell viability (HepG2 [1]; 10000 nM) | cell viability (Vero E6 [2]; 1 nM) | cell viability (Vero E6 [2]; 10 nM) | cell viability (Vero E6 [2]; 100 nM) | cell viability (Vero E6 [2]; 1000 nM) | cell viability (Vero E6 [2]; 10000 nM) | cell viability (Caco-2 [3]; 1 nM) | cell viability (Caco-2 [3]; 10 nM) | cell viability (Caco-2 [3]; 100 nM) | cell viability (Caco-2 [3]; 1000 nM) | cell viability (Caco-2 [3]; 10000 nM) | cell viability (Calu-3 [4]; 1 nM) | cell viability (Calu-3 [4]; 10 nM) | cell viability (Calu-3 [4]; 100 nM) | cell viability (Calu-3 [4]; 1000 nM) | cell viability (Calu-3 [4]; 10000 nM) | cell viability (U2OS [5]; 1 nM) | cell viability (U2OS [5]; 10 nM) | cell viability (U2OS [5]; 100 nM) | cell viability (U2OS [5]; 1000 nM) | cell viability (U2OS [5]; 10000 nM) | relative viability EC50 (HepG2 [6]) | relative viability EC50 (Vero E6 [7]) | relative viability EC50 (Caco-2 [8]) | relative viability EC50 (Calu-3 [9]) | relative viability EC50 (U2OS [10]) | drug sensitivity score (HepG2 [11]) | drug sensitivity score (Vero E6 [12]) | drug sensitivity score (Caco-2 [13]) | drug sensitivity score (Calu-3 [14]) | drug sensitivity score (U2OS [15])
CC1=C(/C=C/C(C)=C/C=C/C(C)=C/C=C/C=C(C)/C=C/C=C(C)/C=C/C2=C(C)CCCC2(C)C)C(C)(C)CCC1 [beta-carotene] | 96.1% | 103% | 94.6% | 110% | 106% | 93.8% | 102% | 96.3% | 104% | 108% | 89.3% | 99.3% | 104% | 92.7% | 98.5% | 98.9% | 104% | 104% | 97.4% | 105% | 92.6% | 95.1% | 102% | 93.9% | 101% | > 10 µM | > 10 µM | > 10 µM | > 10 µM | > 10 µM | 0 | 0 | 0 | 0 | 0
Cc1occc(=O)c1[O-].Cc1occc(=O)c1[O-].[O]=[V+2] [bis(maltolato)oxovanadium(IV)] | 110% | 104% | 100% | 108% | 93% | 94% | 98.2% | 92.7% | 105% | 103% | 101% | 96% | 95.4% | 95.4% | 90.4% | 100% | 103% | 98% | 92.4% | 86.3% | 98.4% | 91.3% | 102% | 94.5% | 88.5% | > 10 µM | > 10 µM | > 10 µM | > 10 µM | > 10 µM | 0 | 0 | 0 | 0.3 | 0
S=C=Nc1ccc(N=C=S)cc1 [bitoscanate] | 97.9% | 82.6% | 103% | 91% | 105% | 90.7% | 93.6% | 93.5% | 92.2% | 104% | 91.8% | 96.6% | 101% | 106% | 103% | 104% | 103% | 94.6% | 95.3% | 102% | 94.2% | 101% | 96.3% | 100% | 105% | > 10 µM | > 10 µM | > 10 µM | > 10 µM | > 10 µM | 0 | 0 | 0 | 0 | 0
CC(C)(C)[C@]1(O)CCN2C[C@H]3c4ccccc4CCc4cccc(c43)[C@@H]2C1 [butaclamol] | 108% | 100% | 96.3% | 90% | 95.5% | 98.4% | 103% | 104% | 98% | 102% | 101% | 94.3% | 93.9% | 99.6% | 94.5% | 90% | 99.7% | 97.2% | 112% | 94.9% | 95.5% | 101% | 92% | 101% | 90.2% | > 10 µM | > 10 µM | > 10 µM | > 10 µM | > 10 µM | 0 | 0 | 0 | 0 | 0
CN1CC(O)C2=C/C(=N/NC(N)=O)C(=O)C=C21 (stereo not given) [carbazochrome] | 98.8% | 97% | 92.2% | 97.1% | 93.1% | 101% | 97% | 93.9% | 96.8% | 103% | 93.3% | 88.5% | 91.5% | 102% | 109% | 105% | 95.3% | 103% | 93.9% | 93.4% | 101% | 97.6% | 98.2% | 92.7% | 101% | > 10 µM | > 10 µM | > 10 µM | > 10 µM | > 10 µM | 0 | 0 | 0 | 0 | 0
CC(=O)OCC1=C(C(=O)O)N2C(=O)[C@@H](NC(=O)CCCC(N)C(=O)O)C2SC1 (stereo not given in full) [cephalosporin-c-zn] | 103% | 88.2% | 81.8% | 112% | 102% | 93.6% | 87.4% | 90.9% | 100% | 104% | 88.7% | 78% | 94.1% | 89.6% | 99.2% | 93.2% | 104% | 91.5% | 97.7% | 99.5% | 97.1% | 98.1% | 94.9% | 92.7% | 104% | > 10 µM | > 10 µM | > 10 µM | > 10 µM | > 10 µM | 0 | 0 | 0 | 0 | 0
